Data set [1] is described as follows: Ferric reducing antioxidant power (FRAP) assay. As to conditions: 30 min at ambient temperature, pH 3.6, absorbance at 593 nm. On the procedure: The method proposed by Benzie and Strain [91] was employed with a slight modification. Briefly, increasing volumes of solutions of the studied compounds were added to wells of a 96-well microplate prefilled with 200 μL of the working solution composed of 0.3 M acetate buffer, pH 3.6 (10 volumes), 10 mM 2,4,6-tris(2-pyridyl)-s-triazine (TPTZ), in 40 mM HCl (1 volume) and 20 mM FeCl3 (1 volume), was prepared immediately before use. After 30 min incubation at ambient temperature and the absorbance of the Fe^2+-TPTZ complex was read at 593 nm.
(§1) All assays were standardized with respect to Trolox. The antioxidant activity was calculated in each case as a ratio of the slope of the dependence of absorbance change on the concentration of a studied compound to the slope of the dependence of absorbance change of standard samples concerning Trolox on the concentration of Trolox. Antioxidant activities were expressed in moles of Trolox equivalents (TE)/mol of a studied compound, as described previously.

Data set [2] has as its system KB human epidermoid carcinoma cells. The arrangement: method as in PMID 8593472. The settings on record: cited from earlier work.
Data set [3] can be described thus: DPPH^● decolorization assay. As to conditions: 30 min at ambient temperature in the dark, absorbance at 517 nm. The method, then: The assay was performed as described in a previous article. Briefly, increasing volumes of solutions of the studied compounds were introduced to wells of a 96-well microplate, each with 200 μL of 0.3 mM DPPH^● solution in methanol. The reaction was allowed to proceed for 30 min at ambient temperature in the dark, and absorbance at 517 nm was read. The absorbance decrease was a measure of the antioxidant activity.
as §1

In data set [4] the test system is PLC/PRF/5 human hepatoma cells. The arrangement: method as in PMID 8593472. As to conditions: cited from earlier work.
The subject of data set [5] is LNCaP prostate cancer cells. The arrangement: method as in PMID 19589639. As to conditions: 48 h exposure, cited from earlier work.
In data set [6] the test system is HeLa cervical cancer cells. The arrangement: method as in PMID 24843386. The settings on record: range given for HeLa and HTB-35, converted; cited from earlier work.
Data set [7] is described as follows: ABTS^● decolorization assay. As to conditions: 30 min incubation at room temperature, absorbance at 734 nm. On the procedure:
A modification of the ABTS^● decolorization assay was employed. Briefly, various volumes of solutions of the studied compounds were introduced to wells of a 96-well microplate, each prefilled 200 μL of ABTS^● solution. […] The drop in absorbance after 30 min incubation at room temperature was read as a measure of the antioxidant activity.
as §1

Data set [8] deals with dRLh-84 rat hepatoma cells. The arrangement: method as in PMID 8593472. As to conditions: cited from earlier work.
The subject of data set [9] is PEO1 ovarian cancer cells. The experiment in a line: Cytotoxicity (Neutral Red), PEO1 cells. It counts as cell-based, human. The settings on record: for Concentration at which viability of PEO1 cells was lowered: p < 0.05; for IC50: Homo sapiens, read-out: IC50 PEO1. On the procedure:
(§2) The PEO1 cells, SKOV-3 cells, and MRC-5 cells were grown at 37 °C and 5% CO2 in RPMI + GlutaMAX medium, McCoy’s 5A medium, and the DMEM + GlutaMAX medium, respectively. The media were supplemented with 10% heat-inactivated fetal calf serum and penicillin/streptomycin. The cell viability was evaluated using the Trypan Blue exclusion test.
(§3) In the cytotoxicity experiments, cells were grown in wells of sterile 96-well plates. The seeding density was 1 × 10^4 for SKOV-3 and MRC-5 cells and 1.5 × 10^4 for PEO1 cells. The cells were allowed to grow in the incubator for 24 h. Then, the medium was removed and new medium with an examined compound was added. The stock solutions of the compounds studied diluted with the appropriate cell medium were filtered before the addition to the cells using 0.22 µm filters. No more than 0.02% of DMSO was present in the media, and it had no discernible impact on the treated cells. Cells not exposed to any compound served as a control. After another 24 h incubation, the medium was gently aspirated, and the wells were added with 2% sterile Neutral Red solution (100 µL). The plates were then incubated (37 °C, 5% CO2) for one hour. The Neutral Red solution was aspirated, and the wells were washed two times with warm (37 °C) PBS. Subsequently, 100 µL of a permeabilization mixture (water/ethanol/glacial acetic acid, 50/49/1, v/v/v) was introduced to each well. The plates were shaken at 700 rpm for 20 min and absorbance was read at a wavelength of 540 nm against 620 nm.

For data set [10], the system named is HeLa human epithelial carcinoma cells. The arrangement: method as in PMID 8593472. As to conditions: cited from earlier work.
In data set [11] the test system is P388-D1 mouse lymphoid cancer cells. The arrangement: method as in PMID 8593472. The settings on record: cited from earlier work.
Data set [12] relates to HTB-35 cervical cancer cells. The arrangement: method as in PMID 24843386. As to conditions: range given for HeLa and HTB-35, converted; cited from earlier work.
The subject of data set [13] is HL-60RG human promyelocytic leukemia cells. The arrangement: method as in PMID 8593472. As to conditions: cited from earlier work.
For data set [14], the system named is DUI45 prostate cancer cells. The arrangement: method as in PMID 19589639. The settings on record: 48 h exposure, cited from earlier work.
In data set [15] the test system is SKOV-3 ovarian cancer cells. The data set is described as follows: Cytotoxicity (Neutral Red), SKOV-3 cells. Type of data set: cell-based, human. The settings on record: for Concentration at which viability of SKOV-3 cells was lowered: p < 0.05; for IC50: Homo sapiens, read-out: IC50 SKOV-3. The method, then:
as §2, §3

The test system of data set [16] is PC-3 prostate cancer cells. The arrangement: method as in PMID 19589639. The settings on record: 48 h exposure, cited from earlier work.
Another data set has as its system MRC-5 fibroblasts. The experiment in a line: Cytotoxicity (Neutral Red), MRC-5 fibroblasts. It counts as cell-based, human. The settings on record: for IC50: Homo sapiens, read-out: IC50 MRC-5. The method, then:
as §2, §3

For data set [17], the system named is A549 human adenocarcinomic alveolar basal epithelial cells. The arrangement: method as in PMID 14688022. As to conditions: cited from earlier work.
Data set [18] concerns MKN-28 gastric cancer cell line. The arrangement: method as in PMID 2298289. The settings on record: range given for four gastric cancer cell lines; read-out: IC50 MKN-28 gastric cancer cells; cited from earlier work.
The subject of data set [19] is breast cancer HCC1937 cells. The arrangement: method as in PMID 16619521. As to conditions: 100 μM; cited from earlier work.
The subject of data set [20] is NUGC-2 gastric cancer cell line. The arrangement: method as in PMID 2298289. As to conditions: range given for four gastric cancer cell lines; read-out: IC50 NUGC-2 gastric cancer cells; cited from earlier work.
Data set [21] deals with colorectal cancer SW-620 cells. The arrangement: method as in PMID 25829782. As to conditions: cited from earlier work.
A further data set concerns MCF-7 cells. The arrangement: method as in PMID 24223637. As to conditions: 40 μg/mL (132 μM); cited from earlier work.
Data set [22] relates to colorectal cancer CACO-2 cells. The arrangement: method as in PMID 25829782. As to conditions: cited from earlier work.
Data set [23] concerns HGC-27 gastric cancer cell line. The arrangement: method as in PMID 2298289. The settings on record: range given for four gastric cancer cell lines; read-out: IC50 HGC-27 gastric cancer cells; cited from earlier work.
The subject of data set [24] is MKN-7 gastric cancer cell line. The arrangement: method as in PMID 2298289. The settings on record: range given for four gastric cancer cell lines; read-out: IC50 MKN-7 gastric cancer cells; cited from earlier work.
The next data set relates to SKOV-3 xenograft tumors. The arrangement: method as in PMID 16675472. The settings on record: administered intragastrically; cited from earlier work.
For a further data set, the system named is SKOV-3 cells. The arrangement: method as in PMID 16675472. The settings on record: cited from earlier work.
The subject of the next data set is HO8910 xenograft tumors. The arrangement: method as in PMID 16675472. As to conditions: administered intragastrically; cited from earlier work.

This is an account of results in article PMC11313193, “Which Constituents Determine the Antioxidant Activity and Cytotoxicity of Garlic? Role of Organosulfur Compounds and Phenolics” (International Journal of Molecular Sciences, 2024).

Values after ≈ are worked out from the molar mass of the structure shown. Read-outs that look alike come from different tables or passages of the source.

Broadly, the IC50 is the concentration that inhibits the measured activity by half. Regarding `O=C(O)c1cc(O)c(O)c(O)c1` [Gallic acid, gallic acid], the “Antioxidant activity, FRAP” value in data set [1] is reported as 0.332 ± 0.001 mol Trolox equivalents (TE)/mol compound. The “IC50 KB cells” value in data set [2] is 13.2 µg/mL (≈ 77.6 µM). The IC50 was 73 µM in data set [2] (converted from μg/mL); 37 µM in data set [4] (converted from μg/mL); 117 µM in data set [5] (converted); 111 to 139 µM in data set [6]; 34 µM in [8] (converted from μg/mL); 19 µM in data set [9] (PEO1, 24 h exposure, Neutral Red). Moreover, the IC50 is 34 µM in data set [10] (converted from μg/mL); 27 µM in [11] (converted from μg/mL); 111 to 139 µM in data set [12]; 30 µM in [13] (converted from μg/mL); 89 µM in [14] (converted); 115 µM in [15] (SK-OV-3, 24 h exposure, Neutral Red). The IC50 in data set [16] (converted) is 89 µM; in the data set on MRC-5 fibroblasts (MRC5, 24 h exposure, Neutral Red), 243 µM. In addition, the “Antioxidant activity, DPPH^● Decolorization” value in data set [3] was 0.178 ± 0.023 mol Trolox equivalents (TE)/mol compound. The “IC50 PLC/PRF/5 cells” value in data set [4] was 6.6 µg/mL (≈ 38.8 µM). In addition, the “IC50 LNCaP prostate cancer cells” value in data set [5] was 21 µg/mL (≈ 123 µM). Moreover, the “Antioxidant activity, ABTS^● Decolorization” value in [7] is reported as 0.972 ± 0.028 mol Trolox equivalents (TE)/mol compound. The “IC50 dRLh-84 cells” value in [8] was 6.2 µg/mL (≈ 36.4 µM). Further, in data set [9] (24 h exposure), the “Concentration at which viability of PEO1 cells was lowered” value fell in the range of 200 to 1000 µM. The “IC50 HeLa cells” value in data set [10] is 6.1 µg/mL (≈ 35.9 µM). The “IC50 P388-D1 cells” value in [11] was 4.8 µg/mL (≈ 28.2 µM). Further, the “IC50 HL-60RG cells” value in [13] is 5.4 µg/mL (≈ 31.7 µM). In data set [14], the “IC50 DUI45 prostate cancer cells” value is 16 µg/mL (≈ 94.1 µM). Moreover, the “Concentration at which viability of SKOV-3 cells was lowered” value in [15] (24 h exposure) was in the range of 200 to 1000 µM. Moreover, the “IC50 PC-3 prostate cancer cells” value in data set [16] is 16 µg/mL (≈ 94.1 µM). Besides, the “Concentration at which viability of MRC-5 cells was lowered” value in the data set with MRC-5 fibroblasts (24 h exposure, p < 0.05) fell in the range of 200 to 1000 µM.

`O=c1c(O)c(-c2ccc(O)c(O)c2)oc2cc(O)cc(O)c12` [Quercetin]: the “Antioxidant activity, FRAP” value in data set [1] is reported as 1.350 ± 0.201 mol Trolox equivalents (TE)/mol compound. For the same compound, the IC50 was around 40 µM in data set [17]; 32 to 55 µM in [18]; 100 µM in data set [9] (PEO1, 24 h); 32 to 55 µM in data set [20]; 20 µM in [21]; 35 µM in [22]. Also, the concentration for half-maximal inhibition (IC50) in data set [15] (SK-OV-3, 24 h) is 272 µM; in [23] it was 32 to 55 µM; with MRC-5 fibroblasts (MRC5, 24 h), 111 µM; in data set [24], 32 to 55 µM. In addition, in data set [3], the “Antioxidant activity, DPPH^● Decolorization” value is 0.384 ± 0.040 mol Trolox equivalents (TE)/mol compound. Further, in [7], the “Antioxidant activity, ABTS^● Decolorization” value is listed as 1.138 ± 0.029 mol Trolox equivalents (TE)/mol compound. For the same compound, in data set [9] (24 h exposure), the “Concentration at which viability of PEO1 cells was lowered” value lay in the range of 75 to 200 µM. Further, in data set [19], the “Viability of HCC1937 cells (diminished to)” value was “ca. 40%”. For the same compound, in the data set on MCF-7 cells, the “Viability of MCF-7 cells (diminished to)” value was “ca. 70%”. The “Concentration at which viability of SKOV-3 cells was lowered” value in data set [15] (24 h exposure) was 75 to 200 µM. Further, the “Concentration range with no significant decrease in viability of MRC-5 cells” value in the data set with MRC-5 fibroblasts (24 h exposure) is given as “up to 200 µM”.

`C=CCSSC[C@H](N)C(=O)O` [SAMC, S-allylmercaptocysteine]: the “Development of xenograft tumors formed by SKOV-3 cells” value in the data set with SKOV-3 xenograft tumors is recorded as “inhibited”. Also, the “Migration of SKOV-3 cells and their invasiveness” value with SKOV-3 cells is reported as “inhibited”. The “Development of xenograft tumors formed by HO8910 cells” value in the data set with HO8910 xenograft tumors was “inhibited”.
